Experimental data from US8748428B2, “Use of a PKC inhibitor” (Novartis AG, priority 2010, dated 2014).

How the values were obtained:
DB cells = experiment: Growth inhibition, CellTiter-Glo, 5 days; format: cell-based; details: Homo sapiens, 120 h, GC DLBCL, no NFkB mutation, 5 days treatment, read-out: growth inhibitory IC50, DB
Source text: (§1) Two pharmacological PKC inhibitors: (i) the pan-PKC inhibitor, Sotrastaurin, also known as AEB071, and (ii) the PKCa/b-selective compound, 3-[2-chloro-7-[(dimethylamino)methyl]-1-naphthalenyl]-4-[7-[2-(2-methoxyethoxy)ethoxy]-1H-indol-3-yl]-1H-pyrrole-2,5-dione (referred to herein as “Compound B”), were used to evaluate the proliferation of several diffuse large B cell lymphoma (DLBCL) lines. The IKKb-selective inhibitors N-(6-chloro-7-methoxy-9H-β-carbolin-8-yl)-2-methylnicotinamide (referred to herein as “MLN120B”) and N-[(2R,6R)-2,6-dimethyl-4-piperidinyl]-4-(7-fluoro-1H-indol-3-yl)-2-pyrimidinamine (referred to herein as “Compound A”) were used as control compounds. ABC DLBCL cell lines (OCI-LY3, OCI-LY10, HBL1, U2932, TMD8, Su-DHL2) and GC DLBCL cell lines (Su-DHL4, DB, K-422) were treated for 5 days with PKC inhibitors (A) Sotrastaurin (AEB071) or (B) Compound B; IKKb inhibitors (C) MLN120B or (D) Compound A. Cells were plated in 96-well plates (Corning, #3358) at 5000 cells/well in 100 μL and treated with DMSO or inhibitors at concentrations ranging from 160 nM to 20 μM (2-fold dilutions). Following 5 days of treatment, cells were lysed with CellTiter-Glo® Luminescent Cell Viability Assay reagent (Promega, G7573), lysates were transferred to opaque 96-well plates (Corning, #3971), and luminescence signal was read using the Envision. Percent growth was calculated relative to median DMSO signal.
(§2) While all ABC DLBCL cell lines were sensitive to IKK inhibitors, their response to PKC inhibitors varied strongly (Table 1A below). The cell lines that are insensitive to PKC inhibitors, OCI-Ly3 and Su-DHL2, have reported mutations in CARD11 and A20, respectively. […] The fact that these oncogenic lesions are thought to function downstream of PKCβ in CBM-NFkB signaling provides a molecular rationale for their insensitivity. […] See, Compagno, M., et al, “Mutations of multiple genes cause deregulation of NF-κB in diffuse large B-cell lymphoma” Nature, 459 (7247), 717-722 (2009)). […] Tables 1A and 1B below show the growth inhibitory IC50 values, which were determined by measuring ATP concentration (Cell Titer Glo), for the indicated compounds in the indicated cell lines. IC50 values were determined as the concentration of compound that leads to 50% reduction of cell growth.

HBL1 cells = experiment: Growth inhibition, CellTiter-Glo, 5 days; format: cell-based; details: HBL1, 120 h; ABC DLBCL, CD79B mutation; 5 days treatment; read-out: growth inhibitory IC50, HBL1
Source text: as §1, §2

K422 cells = experiment: Growth inhibition, CellTiter-Glo, 5 days; format: cell-based; details: 120 h; GC DLBCL, no NFkB mutation; 5 days treatment; read-out: growth inhibitory IC50, K422
Source text: as §1, §2

OCI-Ly10 cells = experiment: Growth inhibition, CellTiter-Glo, 5 days; format: cell-based; details: Homo sapiens, OCI-Ly10, 120 h; ABC DLBCL, CD79A mutation; 5 days treatment; read-out: growth inhibitory IC50, OCI-Ly10
Source text: as §1, §2

OCI-Ly3 cells = experiment: Growth inhibition, CellTiter-Glo, 5 days; format: cell-based; details: Homo sapiens, OCI-Ly3, 120 h; ABC DLBCL, CARD11 mutation; 5 days treatment; read-out: growth inhibitory IC50, OCI-Ly3
Source text: as §1, §2

Su-DHL2 cells = experiment: Growth inhibition, CellTiter-Glo, 5 days; format: cell-based; details: Homo sapiens, SU-DHL-2, 120 h; ABC DLBCL, A20 mutation; 5 days treatment; read-out: growth inhibitory IC50, Su-DHL2
Source text: as §1, §2

Su-DHL4 cells = experiment: Growth inhibition, CellTiter-Glo, 5 days; format: cell-based; details: Homo sapiens, SU-DHL-4, 120 h; GC DLBCL, no NFkB mutation; 5 days treatment; read-out: growth inhibitory IC50, Su-DHL4
Source text: as §1, §2

TMD8 cells = experiment: Growth inhibition, CellTiter-Glo, 5 days; format: cell-based; details: Homo sapiens, TMD8, 120 h; ABC DLBCL, CD79B mutation; 5 days treatment; read-out: growth inhibitory IC50, TMD8
Source text: as §1, §2

U2392 cells = experiment: Growth inhibition, CellTiter-Glo, 5 days; format: cell-based; details: 120 h; ABC DLBCL, TAK1 mutation; 5 days treatment; read-out: growth inhibitory IC50, U2392
Source text: as §1, §2

[1] = system: IL-6 secretion in HBL1 cells; experiment: IL-6 secretion (Quantikine ELISA); format: cell-based; details: HBL1, ELISA of supernatant, 48 hours
Description: The fact that IL-6 is secreted from cells allowed for monitoring of IL-6 levels in cell supernatants. IL-6 secretion was determined by Quantikine ELISA using supernatant from treated cells. Cells were washed and plated at 100,000 cells/well in 100 ul in fresh media in round-bottom 96-well plates (Corning, #3358). The cells were then treated with DMSO or inhibitors at concentrations ranging from 80 nM to 10 uM (2-fold dilutions), and incubated at 37° C. for 48 hours. Then the conditioned media was transferred to v-bottom 96-well plates (Nunc, #12565436). The level of IL-6 secretion was determined by the Quantkine colorimetric ELISA kit from (R & D Systems, #D6050), according to the manufacturer's instructions. For the IL-6 ELISA, the conditioned media was diluted 1:2 with fresh media (except ion: the HBL1 conditioned media was not diluted, it was used 1:1). In FIG. 2, IL-6 secretion for each dose is expressed as a percentage of IL-6 secretion from cells treated with DMSO.

TMD8 xenograft = experiment: Subcutaneous TMD8 xenograft model, tumor growth; format: in vivo, SCID-beige mice; details: 80 mg/kg, tid, daily oral dosing; p<0.05 vs vehicle
Description: CD79 mutant ABC DLBCL were also shown to be sensitive to PKC inhibition in an in vivo setting by using a subcutaneous TMD8 xenograft model. Female SCID-beige mice were purchased from Charles River Labs (Wilmington Mass.) and housed in temperature and a humidity-controlled vivarium with a 12 hours light cycle and provided food and water ad libitum. Mice were implanted subcutaneously with 10×10^6 TMD8 cells in 50% matrigel (BD Biosciences, #354234) in the right dorsal axillary region, and animals were randomized into treatment groups when tumor sizes average ˜160 mm^3 (21 days post-implantation). AEB071 was formulated in 20% PEG400 and 4.5% 0.1 M HCl in D5W. Tumor volume was measured by callipering in 2 dimensions and calculated as (Length×Width^2)/2. Animals were callipered twice weekly during treatment to monitor effects on tumor growth. […] T/C percentage was calculated as the mean change in tumor volumes of treated animals divided by the mean change in tumor volumes of vehicle animals and multiplied by 100. Data are expressed as mean±SEM, and differences are considered statistically significant at p<0.05 by Student t-test.

- IC50 (OCI-Ly10 cells): 1.3 µM
- IC50 (OCI-Ly3 cells): > 20 µM
- IC50 (Su-DHL2 cells): > 20 µM
- IC50 (Su-DHL4 cells): > 20 µM
- IC50 [1]: < 0.2 µM
Compound: CN1CCN(c2nc(C3=C(c4c[nH]c5ccccc45)C(=O)NC3=O)c3ccccc3n2)CC1 [AEB071, 3-(1H-Indol-3-yl)-4-[2-(4-methylpiperazin-1-yl)quinazolin-4-yl]-1H-pyrrole-2,5-dione]
- IC50 (DB cells): > 20 µM
- IC50 (HBL1 cells): 0.5 µM
- IC50 (K422 cells): > 20 µM
- IC50 (TMD8 cells): 0.2 µM
- IC50 (U2392 cells): 5 µM
- T/C (tumor growth) (TMD8 xenograft): 17%
